Test results as given in ChEMBL document CHEMBL1136175, “Synthesis and antimycobacterial activity of capuramycin analogues. Part 2: acylated derivatives of capuramycin-related compounds” (Bioorg Med Chem Lett, 2003).
Values after ≈ are worked out from the molar mass of the structure shown.

Legend:
[1] = tested on: Mycolicibacterium smegmatis; assay: Antimycobacterial activity was determined against Mycobacterium smegmatis SANK75075; type: functional
[2] = target: T1, Phospho-N-acetylmuramoyl-pentapeptide-transferase (Escherichia coli K-12, UniProt P0A6W3); assay: Inhibitory concentration required against Translocase I
T1 sequence (P0A6W3 whole entry): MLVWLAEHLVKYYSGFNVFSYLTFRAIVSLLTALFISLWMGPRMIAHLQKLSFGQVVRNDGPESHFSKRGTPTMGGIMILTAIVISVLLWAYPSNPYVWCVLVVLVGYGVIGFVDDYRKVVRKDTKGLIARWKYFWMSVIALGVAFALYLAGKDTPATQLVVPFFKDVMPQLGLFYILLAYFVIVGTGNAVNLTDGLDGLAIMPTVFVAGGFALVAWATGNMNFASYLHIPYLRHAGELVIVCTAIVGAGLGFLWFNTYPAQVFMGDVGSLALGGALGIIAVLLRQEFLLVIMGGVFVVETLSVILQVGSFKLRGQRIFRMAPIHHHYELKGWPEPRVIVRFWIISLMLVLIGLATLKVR

[3] = tested on: Mycobacterium intracellulare; assay: Antimycobacterial activity against Mycobacterium intracellular ATCC 1954 E-3; type: functional
Mycobacterium kansasii = assay: Antimycobacterial activity against Mycobacterium kansasii ATCC 12478; type: functional
Mycobacterium avium = assay: Antimycobacterial activity against Mycobacterium avium NIHJ1605; type: functional

Structure (SMILES)	MIC [1]	IC50 [2]	MIC [3]	MIC (Mycobacterium kansasii)	MIC (Mycobacterium avium)
CCCCCCCCCCCCCCCCCCCCCC(=O)O[C@@H]1[C@H](OC)[C@@H]([C@@H](O[C@H]2OC(C(=O)N[C@H]3CCC[C@@H](C)NC3=O)=C[C@H](O)[C@@H]2O)C(N)=O)O[C@H]1n1ccc(=O)[nH]c1=O	> 100 µg/mL	16600 nM	–	–	–
CCCCCCCCCOC(=O)O[C@@H]1[C@H](OC)[C@@H]([C@@H](O[C@H]2OC(C(=O)N[C@H]3CCC[C@@H](C)NC3=O)=C[C@H](O)[C@@H]2O)C(N)=O)O[C@H]1n1ccc(=O)[nH]c1=O	12.5 µg/mL (≈ 16.6 µM)	1860 nM	–	–	–
CCCCCCOC(=O)O[C@@H]1[C@H](OC)[C@@H]([C@@H](O[C@H]2OC(C(=O)N[C@H]3CCC[C@@H](C)NC3=O)=C[C@H](O)[C@@H]2O)C(N)=O)O[C@H]1n1ccc(=O)[nH]c1=O	50 µg/mL (≈ 70.3 µM)	183 nM	–	–	–
CO[C@H]1[C@@H](OC(=O)c2ccccc2)[C@H](n2ccc(=O)[nH]c2=O)O[C@@H]1[C@@H](O[C@H]1OC(C(=O)N[C@H]2CCC[C@@H](C)NC2=O)=C[C@H](O)[C@@H]1O)C(N)=O	25 µg/mL (≈ 36.4 µM)	–	–	–	–
CO[C@H]1[C@@H](OC(=O)CC(c2ccccc2)c2ccccc2)[C@H](n2ccc(=O)[nH]c2=O)O[C@@H]1[C@@H](O[C@H]1OC(C(=O)N[C@H]2CCC[C@@H](C)NC2=O)=C[C@H](O)[C@@H]1O)C(N)=O	25 µg/mL (≈ 31.6 µM)	–	–	–	–
CCCCCCCCCCCCCCC(=O)O[C@@H]1[C@H](OC)[C@@H]([C@@H](O[C@H]2OC(C(=O)N[C@H]3CCCCNC3=O)=C[C@H](O)[C@@H]2O)C(N)=O)O[C@H]1n1ccc(=O)[nH]c1=O	3.13 µg/mL (≈ 3.94 µM)	–	1 µg/mL (≈ 1.26 µM)	4 µg/mL (≈ 5.04 µM)	2 µg/mL (≈ 2.52 µM)
CCCCCO[C@@H]1[C@H](OC)[C@@H]([C@@H](O[C@H]2OC(C(=O)N[C@H]3CCC[C@@H](C)NC3=O)=C[C@H](O)[C@@H]2O)C(N)=O)O[C@H]1n1ccc(=O)[nH]c1=O	100 µg/mL (≈ 153 µM)	76.5 nM	4 µg/mL (≈ 6.12 µM)	> 32 µg/mL	> 32 µg/mL
CCCCCCCCCCCCCCCCC(=O)O[C@@H]1[C@H](OC)[C@@H]([C@@H](O[C@H]2OC(C(=O)N[C@H]3CCCCNC3=O)=C[C@H](O)[C@@H]2O)C(N)=O)O[C@H]1n1ccc(=O)[nH]c1=O	50 µg/mL (≈ 60.8 µM)	–	–	–	–
CO[C@H]1[C@@H](O)[C@H](n2ccc(=O)[nH]c2=O)O[C@@H]1[C@@H](O[C@H]1OC(C(=O)N[C@H]2CCC[C@@H](C)NC2=O)=C[C@H](O)[C@@H]1O)C(N)=O	6.25 µg/mL (≈ 10.7 µM)	–	4 µg/mL (≈ 6.85 µM)	16 µg/mL (≈ 27.4 µM)	8 µg/mL (≈ 13.7 µM)
CCCCCCCCCCCCCCCCCC(=O)O[C@@H]1[C@H](OC)[C@@H]([C@@H](O[C@H]2OC(C(=O)N[C@H]3CCC[C@@H](C)NC3=O)=C[C@H](O)[C@@H]2O)C(N)=O)O[C@H]1n1ccc(=O)[nH]c1=O	> 100 µg/mL	9410 nM	–	–	–
CCCCCCCCCC(=O)O[C@@H]1[C@H](OC)[C@@H]([C@@H](O[C@H]2OC(C(=O)N[C@H]3CCC[C@@H](C)NC3=O)=C[C@H](O)[C@@H]2O)C(N)=O)O[C@H]1n1ccc(=O)[nH]c1=O	6.25 µg/mL (≈ 8.47 µM)	–	< 0.063 µg/mL	< 0.063 µg/mL	< 0.063 µg/mL
CCCCCCCCCCC(C)C(=O)O[C@@H]1[C@H](OC)[C@@H]([C@@H](O[C@H]2OC(C(=O)N[C@H]3CCC[C@@H](C)NC3=O)=C[C@H](O)[C@@H]2O)C(N)=O)O[C@H]1n1ccc(=O)[nH]c1=O (some centres not stated)	25 µg/mL (≈ 32.1 µM)	769 nM	–	–	–
CCCCCCCCCCC(C)(C)C(=O)O[C@@H]1[C@H](OC)[C@@H]([C@@H](O[C@H]2OC(C(=O)N[C@H]3CCC[C@@H](C)NC3=O)=C[C@H](O)[C@@H]2O)C(N)=O)O[C@H]1n1ccc(=O)[nH]c1=O	6.25 µg/mL (≈ 7.87 µM)	1260 nM	–	–	–
CCCCCCCC/C=C\CCCCCCCC(=O)O[C@@H]1[C@H](OC)[C@@H]([C@@H](O[C@H]2OC(C(=O)N[C@H]3CCC[C@@H](C)NC3=O)=C[C@H](O)[C@@H]2O)C(N)=O)O[C@H]1n1ccc(=O)[nH]c1=O	6.25 µg/mL (≈ 7.37 µM)	–	–	–	–
CCCCCCCC/C=C\CCCCCCCCCC(=O)O[C@@H]1[C@H](OC)[C@@H]([C@@H](O[C@H]2OC(C(=O)N[C@H]3CCC[C@@H](C)NC3=O)=C[C@H](O)[C@@H]2O)C(N)=O)O[C@H]1n1ccc(=O)[nH]c1=O	50 µg/mL (≈ 57.1 µM)	–	–	–	–
CCCCCCCCCCCCCCCCCCCC(=O)O[C@@H]1[C@H](OC)[C@@H]([C@@H](O[C@H]2OC(C(=O)N[C@H]3CCC[C@@H](C)NC3=O)=C[C@H](O)[C@@H]2O)C(N)=O)O[C@H]1n1ccc(=O)[nH]c1=O	> 100 µg/mL	34200 nM	–	–	–
NNC(=O)c1ccncc1 [ISONIAZID]	–	–	8 µg/mL (≈ 58.3 µM)	2 µg/mL (≈ 14.6 µM)	1 µg/mL (≈ 7.29 µM)
CO[C@H]1/C=C/O[C@@]2(C)Oc3c(C)c(O)c4c(O)c(c(/C=N/N5CCN(C)CC5)c(O)c4c3C2=O)NC(=O)/C(C)=C\C=C\[C@H](C)[C@H](O)[C@@H](C)[C@@H](O)[C@@H](C)[C@H](OC(C)=O)[C@@H]1C [RIFAMPIN]	–	–	0.125 µg/mL (≈ 0.152 µM)	0.25 µg/mL (≈ 0.304 µM)	0.125 µg/mL (≈ 0.152 µM)
